SMILES strings stand for the structures. Entries after “also recorded” stand apart in the source; their conditions may differ.

From US9828576B2, “Cell culture” (National University of Singapore, priority 2012, dated 2017) come the findings set out here.

For this test, the system named is bile canaliculi of hepatocyte couplets. In words: Bile canaliculi (BC) morphology of hepatocyte couplets in F/F microwells after drug treatment (F-actin staining, confocal imaging). Type of test: cell-based, rat. As to conditions: for degree of folding r of BC / vertical aspect ratio i of BC: F/F microwells with drug, compared with control F/F microwells (FIG. 6D); for BC morphology: hepatocytes in F/F microwells. As to the method: For control, hepatocytes cultured for 48 hours in microwells were fixed in 4% para-formaldehyde (PFA) for 30 minutes. For ±Blebbistatin (Merck, 203390) or Y27632 (Sigma, Y0503) treatments, drugs were added 4 h before fixation, while soluble RGD (Sigma, G5646) was incubated with hepatocytes overnight. After fixation, the cells were rinsed by PBS and permeabilized for 30 min in TBST (0.2% Triton-X in TBS). The permeabilized cells were blocked with 1% BSA in TBST for 4 h and incubated overnight with pan-Cadherin antibody (sigma, C1821) and anti-ZO-1 antibody (life technology, 61-7300) at 4° C. as instructed in manuals. After rinsed with TBST, the cells were incubated in secondary antibodies (Life Technology, A10040 and A-31571) and phalloidin-alexa 488 (Life Technology, A12379) for 1 h in dark at room temperature. After rinsed with TBST again and incubated shortly with DAPI (Sigma, D9564), cells were mounted in mounting medium (DAKO, S3023). 3D stack of confocal microscopy images were acquired with 100×NA1.4 oil lens on a Nikon A1R Confocal Microscope.
The selected slices of image stacks were reconstructed as maximum intensity projection or orthogonal section view. Manual segmentation was applied based on F-actin signal, because F-actin provides a better definition of BC boundaries, compared with ZO-1 (FIG. 11). Several features, such as parameter, thickness, horizontal spin size and area of bile canaliculi, were extracted subsequently.
When cells adhered to the side of microwell only (F/P configuration), hepatocytes positioned side by side (FIG. 5C, 5D). […] To confirm the importance of cell-ECM adhesion in obtaining flat tubular BC, we treated the hepatocytes in F/F microwells on day 1 with soluble RGD peptides (250 μM, overnight) that antagonized the integrin-mediated cell-ECM adhesion while keeping the chemical signalling unperturbed. Indeed, as cells detached from the microwells, their BC rounded up to be morphologically equivalent to those observed in the P/F case (FIG. 6A).
Therefore, we tested whether actomyosin contractility was required for the differential control of BC morphology by the spatial organization of cell-ECM adhesion. […] The resulting morphologies were similar to those obtained in the P/F configuration (FIG. 6B, 6C).
The BC morphologies in different conditions were quantitatively assessed by two dimensionless parameters: the degree of folding and vertical aspect ratio. The degree of folding r=P^2/(4πA) was evaluated by measuring the ratio of the BC projected perimeter P to the projected area A. This morphological index r ranges from 1 (circle) upward (folded tubular structures). The vertical aspect ratio i was calculated as the ratio of the BC maximal height over maximal elongation in the XY plane. Higher vertical aspect ratio represents a thicker BC.

With `C[C@@H](N)[C@H]1CC[C@H](C(=O)Nc2ccncc2)CC1` [Y27632], the “degree of folding r of BC” value is “lower” and the “vertical aspect ratio i of BC” value was “higher”. In addition, for the setting “Y27632 10 μM for 4 hours”, the BC morphology result is reported as “rounded up; also recorded: converted tubular BC into spherical ones”.
In the case of `Cc1ccc2c(c1)C(=O)C1(O)CCN(c3ccccc3)C1=N2` (stereo not shown) [blebbistatin], the “degree of folding r of BC” value is reported as “lower” and the “vertical aspect ratio i of BC” value is given as “higher”. In addition, where the note is “blebbistatin 100 μM for 4 hours”, the BC morphology result is given as “rounded up”. Also, for the setting “blebbistatin 100 μM for 4 hours, listed as blebbistatin +/−”, the BC morphology entry was “converted tubular BC into spherical ones”.
